Assay results reported in patent US7816074B2, “α4 β2 δGABA-A receptors as a strategy for PMS and alcoholism” (priority 2003, dated 2010).

Columns and labels:
Format in all cases: in vivo, rat
GABAR α4 subunit = assay: Western blot of α4 subunit in hippocampus after steroid and ethanol administration; conditions: steroid withdrawal after 21 days progesterone
Protocol: Animals were administered steroids using one of two protocols: (i) For the 48 hour steroid administration protocol, animals were injected with 10 mg/kg 3α, 5β THP in oil, i.p., on a daily basis for three days and sacrificed 1-2 hour following the final injection. Controls were injected with oil vehicle. […] At this time, the capsule was removed and the animals were injected with 17 β estradiol (2 μgs/animal) in order to reset their cycle. Animals were sacrificed 24 hours later. […] In all cases, implantation and removal of capsules were performed under halothane anesthesia. […] Therefore, this study employed the 5β isomer of the steroid.
In some groups of animals, either ethanol (0.5 g/kg in saline) or saline vehicle was administered i.p. (3×, every 40 minutes) for the final 2 hours of the respective steroid administration or withdrawal paradigm. The use of multiple injections of low doses of ethanol would approximate ethanol consumption in the human more closely than would a single injection. For the 48 hour steroid administration paradigm, animals received their first ethanol injection immediately after the steroid injection, and subsequent injections at 40 minute intervals. In all cases, animals were sacrificed 40 minutes after the final ethanol injection (2 hours after the first ethanol injection and final steroid injection). All animal protocols were carried out with the approval of the Institutional Animal Care and Use Committee.
Hippocampi removed from steroid or vehicle-treated animals were homogenized, and membranes prepared as previously described (65). Following electrophoresis on 8% SDS polyacrylamide gels, membranes were transferred to a nitrocellulose membrane (Bio-Rad, Hercules, Calif.). α4 subunit levels were detected by evaluating the band density at 67 kDa after probing with a polyclonal antibody (64). Membranes were incubated for 1-2 hours at room temperature with a 1:5000 dilution of horseradish peroxidase-conjugated donkey anti-rabbit IgG (Amersham, Arlington Heights, Ill.), and visualized with enhanced chemiluminescence with varying concentrations of protein in the linear range. Immunoreactive band densities were quantified using a CCD camera (UMAX Scanner) and one-Dscan software, which uses multiple Gaussian fits to achieve accurate band density profiles.

[1] = system: δ and α4 GABAA receptor subunit proteins; assay: Western blot of δ and α4 subunits in hippocampus after progesterone withdrawal
Protocol: (§1) Crystalline progesterone was administered via a silicone capsule ( 1/16″ i.d., ⅛″ o.d.) implanted subcutaneously (10 mm length/100 gm body weight) in female rats (110-120 grams, in vitro studies; 220-250 grams, behavioral studies) for 21 days. Control rats were implanted with an empty capsule. […] Animals were tested 24 hours after removal of the implant.
Membranes prepared from hippocampal tissue were solubilized and electrophoresed on 9% SDS-polyacrylamide gels before transfer to a polyvinyldifluoride membrane, as described (65,69). Polyclonal antiserum against the δ subunit (Asr^318-Leu^400) was supplied by Dr. R. McKernan (Merck)(56) and is visualized as a 54 kDa band. Membranes were also probed with an antibody for the α4 GABAA receptor subunit (67 kDa) (64), developed according to a previously described protocol (38), and a commercial antibody for the control protein GAPDH (glyceraldehyde-3-phosphate dehydrogenase; 36 kDa). Membranes were incubated for 1-2 hours at room temperature with 1:10,000 (α4), 1:7,000 (δ) or 1:20,000 (GAPDH) dilution of antibody followed by addition of 1:5,000 horseradish-peroxidase-conjugated donkey anti-rabbit IgG (Amersham). Band densities were quantified using densitometry with One-Dscan software after normalization to the GAPDH control. Reagents were obtained from Sigma/Genosys.

δ subunit mRNA = assay: Semi-quantitative RT-PCR of δ subunit in hippocampus; conditions: after progesterone withdrawal
Protocol: as §1
Following isolation of total RNA from hippocampus, reverse transcription (SuperScript II, Rnase RT, GibcoBRL) yielded complementary DNA (cDNA) which was amplified with PCR methods (65) using oligonucleotide primers for the δ subunit (398 bp)(70) and GAPDH (657 bp, Operon). Twenty three to thirty amplification cycles were used for two different concentrations of cDNA (25 or 50 ng) to detect band densities within a linear range (15). Following gel electrophoresis (FMC Bioproducts), the density of DNA bands stained with ethidium bromide was quantified and normalized to the GAPDH control.

CC(=O)[C@H]1CC[C@H]2[C@@H]3CCC4=CC(=O)CC[C@]4(C)[C@H]3CC[C@]12C [progesterone]
increase of α4 expression (GABAR α4 subunit): threefold | expression of α4 subunit protein in hippocampus [1]: three-fold | expression of δ subunit protein in hippocampus [1]: three-fold | δ subunit mRNA in hippocampus (δ subunit mRNA): three-fold
